The source of these data is patent publication US12162885B2, “Crystal form of Xevinapant for treating LA SCCHN” (CRYSTAL PHARMACEUTICAL (SUZHOU) CO., LTD., priority 2022, dated 2024).

Entries after “also recorded” stand apart in the source; their conditions may differ.

Series [1] can be described thus: Stability upon mechanical force (ball milling, tableting; XRPD). Format: physicochemical. The following applies: for Crystalline form before and after tableting (XRPD): manual tablet press, 20 kN, 6 mm round tooling; for Crystal form before and after ball milling (XRPD): milled 5 min at 500 rpm in a ball mill. On the procedure: Form CSI was milled for 5 min at a vibration speed of 500 rpm in a ball mill. The sample before and after ball milling were checked by XRPD. […] An appropriate amount of Form CSI was compressed into a tablet using a manual tablet press under a pressure of 20 kN with a ϕ6 mm round tooling. Crystalline form before and after tableting were checked by XRPD. […] Form CSII was milled for 5 min at a vibration speed of 500 rpm in a ball mill. The sample before and after ball milling were checked by XRPD. […] An appropriate amount of Form CSII was compressed into a tablet using a manual tablet press under a pressure of 20 kN with a @6 mm round tooling. Crystalline form before and after tableting were checked by XRPD.

Series [2] is described as follows: Humidity stability test with DVS analyzer. Format: physicochemical. As to conditions: DVS 0% RH-95% RH. On the procedure: Dynamic Vapor Sorption (DVS) was measured via an SMS (Surface Measurement Systems Ltd.) intrinsic DVS instrument. The instrument control software is DVS-Intrinsic control software. Typical Parameters for DVS test are as follows: • Temperature: 25° C. • Gas and flow rate: N2, 200 mL/min • dm/dt: 0.002%/min • RH range: 0% RH-95% RH
DVS analyzer was applied to evaluate the humidity stability of prior art solids, Form CSI and Form CSII. The appearance of Form CSI before and after humidity stability test is shown in FIG. 12, and an XRPD pattern of Form CSI before and after test is shown in FIG. 13. The appearance of Form CSII before and after humidity stability test is shown in FIG. 14, and an XRPD pattern of Form CSII before and after test is shown in FIG. 15.

Series [3] in a line: Storage stability of drug substance with open package (HPLC purity, XRPD form, appearance). Format: physicochemical. As to the method:
An appropriate amount of Form CSI was packaged with corresponding condition, and then stored with open package under 25° C./60% RH, 40° C./75% RH and 60° C./75% RH conditions for a period. Appropriate amounts of prior art solids were packaged with corresponding condition, and then stored with open package under 25° C./60% RH and 60° C./75% RH conditions for a period. Chemical purity and crystalline form were checked by HPLC and XRPD, respectively. The appearance comparison of prior art solid A and Solid B before and after storage are shown in FIG. 19 and FIG. 20, respectively.
Open: Put the sample into a glass vial, cover the vial with aluminum foil, and punch 5-10 holes in the foil.
An appropriate amount of Form CSII and prior art solids were packaged with corresponding conditions, and then stored with open package under 25° C./60% RH and 60° C./75% RH for a period. Chemical purity and crystalline form were checked by HPLC and XRPD, respectively. The appearance comparison of prior art solid A and Solid B before and after storage are shown in FIG. 19 and FIG. 20, respectively.

Another series in a line: Hygroscopicity by DVS. Format: physicochemical. As to conditions: from 0% RH to 80% RH. As to the method:
Dynamic Vapor Sorption (DVS) was measured via an SMS (Surface Measurement Systems Ltd.) intrinsic DVS instrument. The instrument control software is DVS-Intrinsic control software. Typical Parameters for DVS test are as follows: • Temperature: 25° C. • Gas and flow rate: N2, 200 mL/min • dm/dt: 0.002%/min • RH range: 0% RH-95% RH DVS analyzer was applied to evaluate the hygroscopicity of Form CSI with about 10 mg of sample. […] DVS analyzer was applied to evaluate the hygroscopicity of Form CSII with about 10 mg of sample.

Series [4] can be described thus: Stability of crystalline form in the formulation process (XRPD). Format: physicochemical. The following applies: formulation of Table 9, process of Table 10. As to the method:
An XRPD of blank prescription (excipients) and the samples before and after the formulation were tested, and result is shown in FIG. 24. […] [table] [table] An XRPD of Blank prescription (excipients) and Form CSII before and after the formulation were tested, and result is shown in FIG. 28.

The next series has as its system LA SCCHN. The following applies: phase 2 clinical trial, combination with CRT compared to CRT alone; cited from earlier work.
The mark [5] stands for this setting: Initial (baseline of storage stability).

As for `CN[C@@H](C)C(=O)N[C@H]1CN(C(=O)CC(C)C)CC[C@H]2CC[C@@H](C(=O)NC(c3ccccc3)c3ccccc3)N2C1=O` [Form CSII], in series [1], the “Crystalline form before and after tableting (XRPD)” value was “kept stable after tableting”; the “Crystal form before and after ball milling (XRPD)” value was “keeps stable after ball milling”. In series [2], the Appearance after test entry was “Powder”; the “Crystal change before and after humidity stability test (XRPD)” value is given as “no crystal change”. For the same compound, the Physical stability result in series [3] (60° C./75% RH open condition) is listed as “keeps physically stable for at least four weeks”. In addition, in series [3] (60° C./75% RH, Open, 4 weeks), the Appearance result is recorded as “Powder” and the Form result was “No crystal change; also recorded: Form CSII”. In addition, in series [3] (Initial), the Appearance result was “Powder” and the Form result is “Form CSII”. The Weight gain in the series “Hygroscopicity by DVS” is given as 1.16%. Further, the “Crystalline form before and after the formulation process (XRPD)” value in series [4] was “keeps stable before and after the formulation process”.

Consider `CN[C@@H](C)C(=O)N[C@H]1CN(C(=O)CC(C)C)CC[C@H]2CC[C@@H](C(=O)NC(c3ccccc3)c3ccccc3)N2C1=O` [Form CSI], for which the “Crystalline form before and after tableting (XRPD)” value in series [1] is recorded as “keeps stable after tableting”. The “Crystal form before and after ball milling (XRPD)” value in series [1] is given as “No crystal change”. Also, the Appearance after test entry in series [2] is reported as “Powder”. Also, the “Crystal change before and after humidity stability test (XRPD)” value in series [2] is “no crystal change”. Also, the Time stable result in series [3] (25° C./60% RH open condition) is “at least 6 months”; in series [3] (40° C./75% RH open condition), “at least 6 months”; in series [3] (60° C./75% RH open condition) it was “at least 3 months”. For the same compound, the Appearance entry in series [3] (25° C./60% RH, Open, 6 months) is recorded as “Powder”; in series [3] (40° C./75% RH, Open, 6 months), “Powder”; in series [3] (60° C./75% RH, Open, 3 months), “Powder”; in series [3] (Initial) it was “Powder”. Further, the Form entry in series [3] (25° C./60% RH, Open, 6 months) is on record as “Form CSI”; in series [3] (40° C./75% RH, Open, 6 months), “Form CSI”; in series [3] (60° C./75% RH, Open, 3 months), “Form CSI”; in series [3] (Initial), “Form CSI”. Besides, the Purity in series [3] (25° C./60% RH, Open, 6 months) stood at 99.45%; in series [3] (40° C./75% RH, Open, 6 months), 99.45%; in series [3] (setting [5]), 99.50%. Moreover, in the series “Hygroscopicity by DVS”, the Weight gain is listed as 0.46%. The “Crystalline form before and after the formulation process (XRPD)” value in series [4] was “keeps stable before and after the formulation process”.

With `CN[C@@H](C)C(=O)N[C@H]1CN(C(=O)CC(C)C)CC[C@H]2CC[C@@H](C(=O)NC(c3ccccc3)c3ccccc3)N2C1=O.Cl` [Prior art Solid A, reference compound], in series [2], the Appearance after test result is reported as “Transparent solid”. The Appearance entry in series [3] (25° C./60% RH, Open, 1 month) is “Powder”; in series [3] (60° C./75% RH, Open, 1 week), “Gel”; in series [3] (Initial), “Powder”. The Form entry in series [3] (25° C./60% RH, Open, 1 month) is “Amorphous”; in series [3] (60° C./75% RH, Open, 1 week), “Gel”; in series [3] (Initial), “Amorphous”. Also, the Purity turned out to be 98.65% in series [3] (25° C./60% RH, Open, 1 month) and 98.77% in series [3] (setting [5]).

Regarding `CN[C@@H](C)C(=O)N[C@H]1CN(C(=O)CC(C)C)CC[C@H]2CC[C@@H](C(=O)NC(c3ccccc3)c3ccccc3)N2C1=O.O=C(O)C(F)(F)F` [Prior art Solid B, reference compound], the Appearance after test result in series [2] is “Transparent solid”. In addition, the Appearance result in series [3] (25° C./60% RH, Open, 1 month) is “Powder”; in series [3] (60° C./75% RH, Open, 1 week) it was “Gel”; in series [3] (Initial), “Powder”. Further, the Form entry is given as “Amorphous” in series [3] (25° C./60% RH, Open, 1 month); “Gel” in series [3] (60° C./75% RH, Open, 1 week); “Amorphous” in series [3] (Initial). The Purity turned out to be 98.73% in series [3] (25° C./60% RH, Open, 1 month) and 98.87% in series [3] (setting [5]).

In the case of `CN[C@@H](C)C(=O)N[C@H]1CN(C(=O)CC(C)C)CC[C@H]2CC[C@@H](C(=O)NC(c3ccccc3)c3ccccc3)N2C1=O` [Xevinapant, (5S,8S,10aR)—N-benzhydryl-5-((S)-2-(methylamino)propanamido)-3-(3-methylbutanoyl)-6-oxodecahydropyrrolo[l,2-a][l,5]diazocine-8-carboxamide], the “Efficacy in treating patients with LA SCCHN” value with LA SCCHN is “demonstrated efficacy”.
